From US20130338106A1, “COMPOUNDS INHIBITING LEUCINE-RICH REPEAT KINASE ENZYME ACTIVITY” (priority 2011, published 2013)

Columns and labels:
Type in all cases: biochemical
Details in all cases: tested at 10 uM, read-out: percent inhibition of the kinase activity
[1] = target: T1, MINK (Homo sapiens, UniProt Q8N4C8); assay: ProfilerPro Kinase Selectivity, MINK
T1 construct: purchased Caliper LifeSciences
Protocol: (§1) Kinome selectivity profiling was performed using two example compounds according to the manufacturer's instructions using Caliper LifeSciences' ProfilerPro Kinase Selectivity Assay Kits. Compounds prepared in Examples 1 and 7 were tested at 10 uM and data were recorded using the Caliper LabChip® EZ Reader™. Each compounds' percent inhibition of the kinase activity measured in this manner is reported in the following lists.

[2] = target: T2, TEC (Homo sapiens, UniProt P42680); assay: ProfilerPro Kinase Selectivity, TEC
T2 construct: purchased Caliper LifeSciences
Protocol: as §1

[3] = target: T3, PYK2 (Homo sapiens, UniProt Q14289); assay: ProfilerPro Kinase Selectivity, PYK2
T3 construct: purchased Caliper LifeSciences
Protocol: as §1

[4] = target: T4, PDGFRA (Homo sapiens, UniProt P16234); assay: ProfilerPro Kinase Selectivity, PDGFRA
T4 construct: purchased Caliper LifeSciences
T4 sequence (P16234 24-1089, species assumed): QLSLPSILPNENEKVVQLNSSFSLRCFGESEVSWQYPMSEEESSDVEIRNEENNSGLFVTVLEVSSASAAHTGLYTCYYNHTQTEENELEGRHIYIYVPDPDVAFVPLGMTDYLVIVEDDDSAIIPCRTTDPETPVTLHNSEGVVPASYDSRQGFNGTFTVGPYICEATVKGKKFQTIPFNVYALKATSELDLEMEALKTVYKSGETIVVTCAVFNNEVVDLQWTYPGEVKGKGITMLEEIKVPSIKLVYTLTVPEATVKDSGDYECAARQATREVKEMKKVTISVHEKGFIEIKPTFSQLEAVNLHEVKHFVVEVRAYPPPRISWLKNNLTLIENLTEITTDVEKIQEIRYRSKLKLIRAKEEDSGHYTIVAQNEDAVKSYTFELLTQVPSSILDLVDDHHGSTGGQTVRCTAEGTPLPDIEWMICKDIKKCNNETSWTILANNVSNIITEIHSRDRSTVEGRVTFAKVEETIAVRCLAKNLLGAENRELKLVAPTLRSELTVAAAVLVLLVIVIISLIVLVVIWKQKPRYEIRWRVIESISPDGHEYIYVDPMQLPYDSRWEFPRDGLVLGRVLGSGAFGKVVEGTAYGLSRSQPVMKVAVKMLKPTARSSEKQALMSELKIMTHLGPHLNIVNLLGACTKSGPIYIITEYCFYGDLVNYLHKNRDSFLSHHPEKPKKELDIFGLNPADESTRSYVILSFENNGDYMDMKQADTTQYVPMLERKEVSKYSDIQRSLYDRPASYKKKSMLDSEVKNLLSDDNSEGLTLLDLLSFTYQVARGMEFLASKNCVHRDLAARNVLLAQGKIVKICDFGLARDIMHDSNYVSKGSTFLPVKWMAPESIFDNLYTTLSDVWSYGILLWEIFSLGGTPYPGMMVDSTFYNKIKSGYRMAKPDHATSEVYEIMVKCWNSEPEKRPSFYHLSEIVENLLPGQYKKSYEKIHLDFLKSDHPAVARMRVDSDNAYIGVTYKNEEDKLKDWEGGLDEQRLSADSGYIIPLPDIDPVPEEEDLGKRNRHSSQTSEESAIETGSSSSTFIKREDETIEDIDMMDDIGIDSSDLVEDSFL
Protocol: as §1

[5] = target: T5, PRKCZ (Homo sapiens, UniProt Q05513); assay: ProfilerPro Kinase Selectivity, PRKCZ
T5 construct: purchased Caliper LifeSciences
Protocol: as §1

[6] = target: T6, DYRK1A (Homo sapiens, UniProt Q13627); assay: ProfilerPro Kinase Selectivity, DYRK1A
T6 construct: purchased Caliper LifeSciences
Protocol: as §1

[7] = target: T7, RET Y791F (Homo sapiens, UniProt P07949, Y791F); assay: ProfilerPro Kinase Selectivity, RET Y791F
T7 construct: purchased Caliper LifeSciences
Protocol: as §1

[8] = target: T8, EPHB3 (Homo sapiens, UniProt P54753); assay: ProfilerPro Kinase Selectivity, EPHB3
T8 construct: purchased Caliper LifeSciences
Protocol: as §1

[9] = target: T9, EPHA2 (Homo sapiens, UniProt P29317); assay: ProfilerPro Kinase Selectivity, EPHA2
T9 construct: purchased Caliper LifeSciences
Protocol: as §1

[10] = target: T10, FLT3 (Homo sapiens, UniProt P36888); assay: ProfilerPro Kinase Selectivity, FLT3
T10 construct: purchased Caliper LifeSciences
Protocol: as §1

[11] = target: T11, BTK (Homo sapiens, UniProt Q06187); assay: ProfilerPro Kinase Selectivity, BTK
T11 construct: purchased Caliper LifeSciences
Protocol: as §1

[12] = target: T12, SYK (Homo sapiens, UniProt P43405); assay: ProfilerPro Kinase Selectivity, SYK
T12 construct: purchased Caliper LifeSciences
Protocol: as §1

[13] = target: T13, CAMK2G (Homo sapiens, UniProt Q13555); assay: ProfilerPro Kinase Selectivity, CAMK2G
T13 construct: purchased Caliper LifeSciences
Protocol: as §1

[14] = target: T14, PIM1 (Homo sapiens, UniProt P11309); assay: ProfilerPro Kinase Selectivity, PIM1
T14 construct: purchased Caliper LifeSciences
T14 sequence (P11309 whole entry, species assumed): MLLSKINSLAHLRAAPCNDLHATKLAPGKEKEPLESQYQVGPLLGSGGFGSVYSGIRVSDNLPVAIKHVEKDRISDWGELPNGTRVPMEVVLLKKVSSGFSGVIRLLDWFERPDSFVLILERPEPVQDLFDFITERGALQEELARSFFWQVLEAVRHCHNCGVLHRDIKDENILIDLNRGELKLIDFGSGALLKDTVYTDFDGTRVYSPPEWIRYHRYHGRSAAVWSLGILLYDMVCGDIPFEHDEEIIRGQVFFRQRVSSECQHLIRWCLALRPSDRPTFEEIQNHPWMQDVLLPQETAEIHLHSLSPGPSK
Protocol: as §1

[15] = target: T15, ARG (Homo sapiens, UniProt P42684); assay: ProfilerPro Kinase Selectivity, ARG
T15 construct: purchased Caliper LifeSciences
T15 sequence (P42684 whole entry): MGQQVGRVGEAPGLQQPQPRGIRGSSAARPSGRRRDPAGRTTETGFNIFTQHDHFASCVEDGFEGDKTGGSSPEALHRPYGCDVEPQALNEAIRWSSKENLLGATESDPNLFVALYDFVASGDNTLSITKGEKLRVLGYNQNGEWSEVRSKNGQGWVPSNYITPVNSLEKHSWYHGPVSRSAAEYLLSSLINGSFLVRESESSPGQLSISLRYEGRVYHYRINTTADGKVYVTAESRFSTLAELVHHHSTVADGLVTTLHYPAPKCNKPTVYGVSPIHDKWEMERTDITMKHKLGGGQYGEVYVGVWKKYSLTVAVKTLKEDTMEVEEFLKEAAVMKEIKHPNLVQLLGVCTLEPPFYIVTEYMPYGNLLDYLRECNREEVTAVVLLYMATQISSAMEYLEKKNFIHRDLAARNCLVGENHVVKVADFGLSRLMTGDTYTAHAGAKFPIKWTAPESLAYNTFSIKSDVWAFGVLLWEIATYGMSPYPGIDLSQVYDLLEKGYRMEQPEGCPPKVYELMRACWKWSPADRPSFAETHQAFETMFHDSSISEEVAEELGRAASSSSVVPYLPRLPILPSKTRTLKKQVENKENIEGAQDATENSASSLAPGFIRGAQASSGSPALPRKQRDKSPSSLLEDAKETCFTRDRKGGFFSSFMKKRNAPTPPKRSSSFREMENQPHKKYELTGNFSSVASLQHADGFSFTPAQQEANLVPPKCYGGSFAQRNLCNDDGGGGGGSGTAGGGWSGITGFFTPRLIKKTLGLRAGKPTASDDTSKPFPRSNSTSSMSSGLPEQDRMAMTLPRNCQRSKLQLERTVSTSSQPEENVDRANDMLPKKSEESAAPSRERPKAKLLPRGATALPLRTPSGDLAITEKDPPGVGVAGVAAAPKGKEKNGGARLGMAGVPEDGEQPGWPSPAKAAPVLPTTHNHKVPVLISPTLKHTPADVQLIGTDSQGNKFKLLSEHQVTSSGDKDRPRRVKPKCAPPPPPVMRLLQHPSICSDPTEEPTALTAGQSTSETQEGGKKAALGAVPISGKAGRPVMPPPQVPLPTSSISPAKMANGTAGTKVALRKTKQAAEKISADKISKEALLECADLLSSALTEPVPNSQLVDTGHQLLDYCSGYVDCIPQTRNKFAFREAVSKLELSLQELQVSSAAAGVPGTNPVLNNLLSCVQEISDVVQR
Protocol: as §1

[16] = target: T16, MST1R (Homo sapiens, UniProt Q04912); assay: ProfilerPro Kinase Selectivity, MST1R
T16 construct: purchased Caliper LifeSciences
Protocol: as §1

[17] = target: T17, CAMK2B (Homo sapiens, UniProt Q13554); assay: ProfilerPro Kinase Selectivity, CAMK2B
T17 construct: purchased Caliper LifeSciences
Protocol: as §1

[18] = target: T18, PRKCA (Homo sapiens, UniProt P17252); assay: ProfilerPro Kinase Selectivity, PRKCA
T18 construct: purchased Caliper LifeSciences
Protocol: as §1

[19] = target: T19, PDGFR A(550) (Homo sapiens, UniProt P16234); assay: ProfilerPro Kinase Selectivity, PDGFR A(550)
T19 construct: purchased Caliper LifeSciences
Protocol: as §1

[20] = target: T20, EPHB4 (Homo sapiens, UniProt P54760); assay: ProfilerPro Kinase Selectivity, EPHB4
T20 construct: purchased Caliper LifeSciences
Protocol: as §1

[21] = target: T21, PAK3 (Homo sapiens, UniProt O75914); assay: ProfilerPro Kinase Selectivity, PAK3
T21 construct: purchased Caliper LifeSciences
T21 sequence (O75914 whole entry, species assumed): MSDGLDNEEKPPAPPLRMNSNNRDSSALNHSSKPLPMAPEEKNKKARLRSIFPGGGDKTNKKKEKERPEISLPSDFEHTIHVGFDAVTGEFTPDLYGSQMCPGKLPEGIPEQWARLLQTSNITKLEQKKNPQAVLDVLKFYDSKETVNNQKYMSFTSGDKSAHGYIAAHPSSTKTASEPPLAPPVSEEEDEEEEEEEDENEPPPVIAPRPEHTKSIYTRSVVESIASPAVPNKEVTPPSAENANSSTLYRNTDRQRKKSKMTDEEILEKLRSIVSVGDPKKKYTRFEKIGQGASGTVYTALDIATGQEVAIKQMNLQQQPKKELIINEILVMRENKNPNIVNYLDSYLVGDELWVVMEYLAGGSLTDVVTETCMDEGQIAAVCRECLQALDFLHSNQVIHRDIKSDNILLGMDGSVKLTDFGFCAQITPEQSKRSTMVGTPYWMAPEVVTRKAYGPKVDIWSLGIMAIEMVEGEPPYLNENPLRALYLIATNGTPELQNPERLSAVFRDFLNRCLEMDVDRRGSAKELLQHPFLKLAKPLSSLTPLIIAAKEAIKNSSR
Protocol: as §1

[22] = target: T22, AKT3 (Homo sapiens, UniProt Q9Y243); assay: ProfilerPro Kinase Selectivity, AKT3
T22 construct: purchased Caliper LifeSciences
T22 sequence (Q9Y243 whole entry, species assumed): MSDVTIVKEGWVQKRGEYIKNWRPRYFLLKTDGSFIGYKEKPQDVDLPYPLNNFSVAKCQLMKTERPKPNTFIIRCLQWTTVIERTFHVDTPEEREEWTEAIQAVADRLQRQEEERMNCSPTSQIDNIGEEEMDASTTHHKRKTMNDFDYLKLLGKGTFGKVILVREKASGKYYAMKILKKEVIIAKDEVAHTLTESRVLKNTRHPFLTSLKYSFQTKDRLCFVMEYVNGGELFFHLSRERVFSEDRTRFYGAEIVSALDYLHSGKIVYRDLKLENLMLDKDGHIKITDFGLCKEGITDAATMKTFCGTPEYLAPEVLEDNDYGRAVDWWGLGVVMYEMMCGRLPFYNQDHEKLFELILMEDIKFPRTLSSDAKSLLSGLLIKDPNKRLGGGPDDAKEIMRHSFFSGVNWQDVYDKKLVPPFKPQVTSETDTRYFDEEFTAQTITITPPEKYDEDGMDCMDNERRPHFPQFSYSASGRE
Protocol: as §1

[23] = target: T23, FGFR3 (Homo sapiens, UniProt P22607); assay: ProfilerPro Kinase Selectivity, FGFR3
T23 construct: purchased Caliper LifeSciences
Protocol: as §1

[24] = target: T24, FYN (Homo sapiens, UniProt P06241); assay: ProfilerPro Kinase Selectivity, FYN
T24 construct: purchased Caliper LifeSciences
Protocol: as §1

[25] = target: T25, CDK2 (Homo sapiens, UniProt P24941); assay: ProfilerPro Kinase Selectivity, CDK2
T25 construct: purchased Caliper LifeSciences
Protocol: as §1

[26] = target: T26, PKG1B (Homo sapiens, UniProt Q13976); assay: ProfilerPro Kinase Selectivity, PKG1B
T26 construct: purchased Caliper LifeSciences
T26 sequence (Q13976 1-686 isoform Q13976-2): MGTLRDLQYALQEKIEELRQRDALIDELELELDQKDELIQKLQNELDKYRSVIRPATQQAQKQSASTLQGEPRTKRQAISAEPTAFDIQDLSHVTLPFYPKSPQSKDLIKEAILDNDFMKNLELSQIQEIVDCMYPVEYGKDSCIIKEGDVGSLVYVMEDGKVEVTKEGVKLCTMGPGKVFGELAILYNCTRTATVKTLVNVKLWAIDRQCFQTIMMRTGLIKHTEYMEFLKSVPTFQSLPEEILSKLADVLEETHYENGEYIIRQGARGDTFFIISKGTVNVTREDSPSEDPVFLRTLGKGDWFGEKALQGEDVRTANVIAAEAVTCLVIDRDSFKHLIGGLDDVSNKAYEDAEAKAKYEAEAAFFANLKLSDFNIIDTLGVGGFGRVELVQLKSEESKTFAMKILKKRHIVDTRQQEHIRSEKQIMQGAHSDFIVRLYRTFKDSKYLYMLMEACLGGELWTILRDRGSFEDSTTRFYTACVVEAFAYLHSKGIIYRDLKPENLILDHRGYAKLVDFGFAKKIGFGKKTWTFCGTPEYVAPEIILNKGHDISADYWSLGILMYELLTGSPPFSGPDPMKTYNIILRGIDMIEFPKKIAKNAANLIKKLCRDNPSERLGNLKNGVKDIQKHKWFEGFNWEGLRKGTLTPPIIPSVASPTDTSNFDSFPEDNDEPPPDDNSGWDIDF
Protocol: as §1

[27] = target: T27, DCAMKL2 (Homo sapiens, UniProt Q8N568); assay: ProfilerPro Kinase Selectivity, DCAMKL2
T27 construct: purchased Caliper LifeSciences
T27 sequence (Q8N568 whole entry, species assumed): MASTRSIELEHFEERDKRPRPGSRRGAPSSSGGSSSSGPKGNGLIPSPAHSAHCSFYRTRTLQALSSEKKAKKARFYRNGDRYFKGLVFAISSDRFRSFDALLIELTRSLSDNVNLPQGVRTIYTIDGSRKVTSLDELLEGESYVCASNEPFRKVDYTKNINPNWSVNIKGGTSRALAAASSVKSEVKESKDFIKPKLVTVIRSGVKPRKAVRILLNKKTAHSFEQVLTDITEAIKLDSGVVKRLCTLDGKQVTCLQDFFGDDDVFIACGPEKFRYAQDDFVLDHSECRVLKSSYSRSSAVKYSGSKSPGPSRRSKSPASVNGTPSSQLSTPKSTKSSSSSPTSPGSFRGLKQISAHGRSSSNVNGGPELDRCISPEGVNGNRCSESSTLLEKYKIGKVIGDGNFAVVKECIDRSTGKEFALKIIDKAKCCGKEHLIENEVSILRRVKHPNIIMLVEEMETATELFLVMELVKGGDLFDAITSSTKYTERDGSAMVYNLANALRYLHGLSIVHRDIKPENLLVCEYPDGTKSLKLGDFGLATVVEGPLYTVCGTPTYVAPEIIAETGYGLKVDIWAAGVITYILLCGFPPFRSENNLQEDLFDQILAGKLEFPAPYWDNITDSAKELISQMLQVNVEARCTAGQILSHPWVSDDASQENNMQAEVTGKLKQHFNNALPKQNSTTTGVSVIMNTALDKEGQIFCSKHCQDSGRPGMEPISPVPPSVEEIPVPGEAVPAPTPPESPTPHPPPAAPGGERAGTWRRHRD
Protocol: as §1

[28] = target: T28, NTRK2 (Homo sapiens, UniProt Q16620); assay: ProfilerPro Kinase Selectivity, NTRK2
T28 construct: purchased Caliper LifeSciences
Protocol: as §1

[29] = target: T29, EGFR T790M L858R (Homo sapiens, UniProt P00533, L858R/T790M); assay: ProfilerPro Kinase Selectivity, EGFR T790M L858R
T29 construct: purchased Caliper LifeSciences
Protocol: as §1

`CSc1sc(-c2cc[nH]n2)c2c1C(=O)CCC2` [Example 1, 3-(Methylsulfanyl)-1-(1H-pyrazol-3-yl)-6,7-dihydro-2-benzothiophen-4(5H)-one] gave an inhibition at 10 µM [1] of 24.8%, an inhibition at 10 µM [2] of 0.6% and an inhibition at 10 µM [3] of 4.2%. It also gave an inhibition at 10 µM [4] of 15.7%, an inhibition at 10 µM [5] of 0.4% and an inhibition at 10 µM [6] of 44%. It also gave an inhibition at 10 µM [7] of 37.6%, an inhibition at 10 µM [8] of -1% and an inhibition at 10 µM [9] of 0.7%. The inhibition at 10 µM [10] was 11.4%, the inhibition at 10 µM [11] was 3.1% and the inhibition at 10 µM [12] was 49.9%. The inhibition at 10 µM [13] was 3.1%, the inhibition at 10 µM [14] was 26.3% and the inhibition at 10 µM [15] was -6%. It also gave an inhibition at 10 µM [16] of -1.3%, an inhibition at 10 µM [17] of 6.3% and an inhibition at 10 µM [18] of 2.6%. For the same molecule, the inhibition at 10 µM [19] was 1.5%, the inhibition at 10 µM [20] was 0.6% and the inhibition at 10 µM [21] was -13.1%. The inhibition at 10 µM [22] was -2.2%, the inhibition at 10 µM [23] was 9% and the inhibition at 10 µM [24] was 1.2%. For the same molecule, the inhibition at 10 µM [25] was 18.4%, the inhibition at 10 µM [26] was 10.8% and the inhibition at 10 µM [27] was -0.8%. For the same molecule, the inhibition at 10 µM [28] was 16.9% and the inhibition at 10 µM [29] was 3.9%.
Work on `CC1(C)CC(=O)c2c(SC3CCCC3)sc(-c3cc[nH]n3)c2C1` [Example 7, 3-(Cyclopentylsulfanyl)-6,6-dimethyl-1-(1H-pyrazol-3-yl)-6,7-dihydro-2-benzothiophen-4(5H)-one] yielded an inhibition at 10 µM [1] of -1.5%, an inhibition at 10 µM [2] of -3.2% and an inhibition at 10 µM [3] of -0.6%. The inhibition at 10 µM [4] was -0.7%, the inhibition at 10 µM [5] was 0.5% and the inhibition at 10 µM [6] was 0%. It also gave an inhibition at 10 µM [7] of 11.1%, an inhibition at 10 µM [8] of 2.2% and an inhibition at 10 µM [9] of 0.7%. The inhibition at 10 µM [10] was 4.6%, the inhibition at 10 µM [11] was 4.8% and the inhibition at 10 µM [12] was 5.8%. For the same molecule, the inhibition at 10 µM [13] was 4.4%, the inhibition at 10 µM [14] was -16.3% and the inhibition at 10 µM [15] was 8.6%. The inhibition at 10 µM [16] was -7%, the inhibition at 10 µM [17] was 6% and the inhibition at 10 µM [18] was 4.3%. It also gave an inhibition at 10 µM [19] of -13.8%, an inhibition at 10 µM [20] of 0.1% and an inhibition at 10 µM [21] of -170%. For the same molecule, the inhibition at 10 µM [22] was -2.7%, the inhibition at 10 µM [23] was -2.6% and the inhibition at 10 µM [24] was 2.5%. The inhibition at 10 µM [25] was 2.1%, the inhibition at 10 µM [26] was -0.6% and the inhibition at 10 µM [27] was -4.2%. It also gave an inhibition at 10 µM [28] of 7% and an inhibition at 10 µM [29] of 13.7%.
